# From the supplement of paper PMC11579375
# Key:
# Assay in all cases: area under the viability dose-response curve (AUC) (AUC (arbitrary units, max 500 = no viability loss)); higher = less sensitive (higher viability)
# Details in all cases: exposure time: 120 h; concentration range: 0.1 nM - 10 µM, 6 doses
# 3E = system: 3E (embryonal-type hepatoblastoma organoid)
# Method: (§1)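 Patient-derived hepatoblastoma tumor organoids (about 50 organoids per well, 384-well plates, medium with 5% BME) were treated with the PMC pediatric cancer drug library. Each drug was tested in duplicate at 6 concentrations (0.1 nM to 10 µM, 10-fold steps).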
# 13E = system: 13E (embryonal-type hepatoblastoma organoid)
# Method: as §1
# 17E = system: 17E (embryonal-type hepatoblastoma organoid)
# Method: as §1
# 135F2 = system: 135F2 (fetal-II hepatoblastoma organoid with high liver markers)
# Method: as §1
# 22E = system: 22E (embryonal-type hepatoblastoma organoid)
# Method: as §1
# 10F2 = system: 10F2 (fetal-II hepatoblastoma organoid with high liver markers)
# Method: as §1
# 17F1 = system: 17F1 (fetal-I hepatoblastoma organoid with intermediate liver markers)
# Method: as §1
# 27F1 = system: 27F1 (fetal-I hepatoblastoma organoid with intermediate liver markers)
# Method: as §1
# 8F1 = system: 8F1 (fetal-I hepatoblastoma organoid with intermediate liver markers)
# Method: as §1
# 96F1 = system: 96F1 (fetal-I hepatoblastoma organoid with intermediate liver markers)
# Method: as §1
# 13F2 = system: 13F2 (fetal-II hepatoblastoma organoid with high liver markers)
# Method: as §1
Compound,area under the viability dose-response curve (3E),area under the viability dose-response curve (13E),area under the viability dose-response curve (17E),area under the viability dose-response curve (135F2),area under the viability dose-response curve (22E),area under the viability dose-response curve (10F2),area under the viability dose-response curve (17F1),area under the viability dose-response curve (27F1),area under the viability dose-response curve (8F1),area under the viability dose-response curve (96F1),area under the viability dose-response curve (13F2)
Cc1sc2c(c1C)C(c1ccc(Cl)cc1)=N[C@@H](CC(N)=O)c1nnc(C)n1-2 [CPI-203],342,410,373,334,413,335,467,468,447,473,336
CC(C)C[C@H](NC(=O)[C@H](Cc1ccccc1)NC(=O)c1cnccn1)B(O)O [Bortezomib],133,179,173,191,193,189,170,200,207,210,182
CC[C@]1(O)C[C@@H]2CN(CCc3c([nH]c4ccccc34)[C@@](C(=O)OC)(c3cc4c(cc3OC)N(C)[C@H]3[C@@](O)(C(=O)OC)[C@H](OC(C)=O)[C@]5(CC)C=CCN6CC[C@]43[C@@H]65)C2)C1 [Vinblastine],148,164,183,176,223,160,208,194,220,156,189
CN1CC[C@@H](NC(=O)Nc2ccc(C#N)cc2)C[C@@H]1c1nc2ccccc2[nH]1 [Glasdegib],> 500,> 500,> 500,> 500,> 500,448,497,> 500,> 500,> 500,> 500
Cc1cc(-c2ncc(CC(=O)Nc3ccc(-c4cnccn4)cn3)cc2C)ccn1 [LGK974],> 500,497,475,499,494,474,497,492,489,491,477
C=CC(=O)Nc1cc(Nc2nccc(-c3cn(C)c4ccccc34)n2)c(OC)cc1N(C)CCN(C)C [Osimertinib],378,424,448,442,423,335,468,380,490,449,364
COc1ccc(Cn2ccc3ccc(C(=O)NO)cc32)cc1,452,490,475,488,452,454,484,483,474,487,472
CCc1c2c(nc3ccc(O)cc13)-c1cc3c(c(=O)n1C2)COC(=O)[C@]3(O)CC [SN-38 (Irinotecan)],156,266,200,156,312,173,189,178,251,173,162
Nc1ccccc1NC(=O)c1ccc(CNC(=O)OCc2cccnc2)cc1 [Entinostat],386,425,428,455,439,358,434,462,426,483,429
CN(C)C/C=C/C(=O)Nc1ccc(C(=O)N2CCC[C@@H](Nc3ncc(Cl)c(-c4c[nH]c5ccccc45)n3)C2)cc1 [THZ531],263,360,374,367,320,332,332,336,344,340,376
C[C@H](NC(=O)Cc1cc(F)cc(F)c1)C(=O)N[C@@H]1C(=O)N(C)c2ccccc2-c2ccccc21,406,472,430,472,493,392,478,441,456,497,388
CCN1CCN(Cc2ccc(Nc3ncc(F)c(-c4cc(F)c5nc(C)n(C(C)C)c5c4)n3)nc2)CC1 [Abemaciclib],264,408,284,360,395,314,452,402,448,411,314
CO[C@H]1C[C@@H]2CC[C@@H](C)[C@@](O)(O2)C(=O)C(=O)N2CCCC[C@H]2C(=O)O[C@H]([C@H](C)C[C@@H]2CC[C@@H](OCCO)[C@H](OC)C2)CC(=O)[C@H](C)/C=C(\C)[C@@H](O)[C@@H](OC)C(=O)[C@H](C)C[C@H](C)/C=C/C=C/C=C/1C [Everolimus],303,393,334,453,356,373,494,> 500,467,464,327
CS(=O)(=O)CCNCc1ccc(-c2ccc3ncnc(Nc4ccc(OCc5cccc(F)c5)c(Cl)c4)c3c2)o1 [Lapatinib],464,483,482,474,463,336,459,416,495,445,388
CC1=C(/C=C/C(C)=C/C=C/C(C)=C/C(=O)Nc2ccc(O)cc2)C(C)(C)CCC1 [Fenretinide],386,446,426,430,418,418,443,484,470,430,469
Nc1ncccc1-c1nc2ccc(-c3ccccc3)nc2n1-c1ccc(C2(N)CCC2)cc1 [Miransertib],338,421,365,429,387,446,494,447,428,433,422

Compound,area under the viability dose-response curve (3E),area under the viability dose-response curve (13E),area under the viability dose-response curve (17E),area under the viability dose-response curve (135F2),area under the viability dose-response curve (22E),area under the viability dose-response curve (10F2),area under the viability dose-response curve (17F1),area under the viability dose-response curve (27F1),area under the viability dose-response curve (8F1),area under the viability dose-response curve (96F1),area under the viability dose-response curve (13F2)
O=C(c1cc(Cc2n[nH]c(=O)c3ccccc23)ccc1F)N1CCN(C(=O)C2CC2)CC1 [Olaparib],477,496,494,492,458,470,> 500,476,> 500,490,491
Cc1c(Cn2c(C)nc3c(C(=O)O)cc(N4CCOCC4)cc32)cccc1C(F)(F)F,499,488,495,> 500,495,500,498,498,> 500,497,488
N#CC[C@H](C1CCCC1)n1cc(-c2ncnc3[nH]ccc23)cn1 [Ruxolitinib],462,> 500,487,491,440,492,478,> 500,> 500,490,487
Cn1nnc2c(C(N)=O)ncn2c1=O [Temozolomide],499,> 500,462,> 500,490,468,494,> 500,> 500,480,487
COc1cc(Nc2ncc3c(n2)-c2ccc(Cl)cc2C(c2c(F)cccc2OC)=NC3)ccc1C(=O)O [Alisertib],328,381,339,369,382,325,494,436,473,416,310
COc1ccc([C@@H](O)c2cc(-c3ncnc4cc(N5CCOCC5)ccc34)c(F)cc2Cl)nn1 [Nedisertib],435,453,409,463,462,404,486,493,479,462,394
C[C@@H]1CN(CC(=O)Nc2ccc3c(c2)Cc2cccc(-c4cc(=O)cc(N5CCOCC5)o4)c2S3)C[C@H](C)O1,> 500,493,457,470,461,430,> 500,456,> 500,480,484
CC(=O)O[C@@]12CO[C@@H]1C[C@H](O)[C@@]1(C)C(=O)[C@H](O)C3=C(C)[C@@H](OC(=O)[C@H](O)[C@@H](NC(=O)OC(C)(C)C)c4ccccc4)C[C@@](O)([C@@H](OC(=O)c4ccccc4)[C@H]21)C3(C)C [Docetaxel],101,179,175,195,248,134,255,267,401,203,171
Cc1c(C(=O)Nc2ccc(N3C[C@@H](C)O[C@@H](C)C3)nc2)cccc1-c1ccc(OC(F)(F)F)cc1 [Sonidegib],477,485,466,470,469,409,477,> 500,477,465,470
CC(=O)O[C@H]1C(=O)[C@@]2(C)[C@H]([C@H](OC(=O)c3ccccc3)[C@]3(O)C[C@H](OC(=O)[C@H](O)[C@@H](NC(=O)c4ccccc4)c4ccccc4)C(C)=C1C3(C)C)[C@]1(OC(C)=O)CO[C@@H]1C[C@@H]2O [Paclitaxel],145,196,174,211,229,179,222,250,312,179,215
C[C@@H](Oc1cc(-c2cnn(C3CCNCC3)c2)cnc1N)c1c(Cl)ccc(F)c1Cl [Crizotinib],379,415,405,422,420,369,431,441,477,462,398
Cc1nc(-c2cn3c(n2)-c2ccc(-c4cnn(C(C)(C)C(N)=O)c4)cc2OCC3)n(C(C)C)n1 [Taselisib],305,388,349,435,415,361,493,413,475,437,351
COc1ccc(-c2ccc3c(N4CCOC[C@@H]4C)nc(N4CCOC[C@@H]4C)nc3n2)cc1CO [AZD8055],316,366,331,342,396,259,456,468,466,445,278
Cc1cc(Nc2ncc(Cl)c(Nc3ccccc3S(=O)(=O)C(C)C)n2)c(OC(C)C)cc1C1CCNCC1 [Ceritinib],351,381,368,373,375,356,446,432,441,413,349
CC(C)C[C@H](NC(=O)[C@H](CCc1ccccc1)NC(=O)CN1CCOCC1)C(=O)N[C@@H](Cc1ccccc1)C(=O)N[C@@H](CC(C)C)C(=O)[C@@]1(C)CO1 [Carfilzomib],242,362,247,194,347,323,269,332,350,355,217
O=c1cc(CN2CCOCC2)occ1OCCCCCSc1ccnc2cc(C(F)(F)F)ccc12 [EHT 1864],371,481,454,475,490,375,477,490,468,488,456
